Results as given in patent publication US20150031102A1, “METHODS AND COMPOSITIONS FOR ENHANCED PRODUCTION OF BUTANOL BY CLOSTRIDIA” (Butrolix LLC, priority 2012, published 2015).
Values joined by “and” are separate entries in the source; they are usually repeats but may differ in a detail not shown here. Equal entries are not always repeated.

Test system: C. acetobutylicum ATCC 824
Assay: Sequential batch cultures of C. acetobutylicum ATCC 824 grown at 30° C. in YEPG (growth OD600, final pH, ceric ion reactive compounds)
Type: cell-based, Clostridium acetobutylicum
Settings: for Final pH / Optical density at 600 nm / Optical density of ceric ion reactive compounds measured at 500 nm: 96 h culture
Method: Clostridium acetobutylicum ATCC 824 and C. beijerinckii NCIMB 8052 are available from several commercial microbial culture collections including the American Type Culture Collection (ATCC), Manassas, Va., USA. The strain grown at 30 C or 37 C in YE broth, which contained, per liter: 5.0 g yeast extract, 2.5 g casamino acids, 1.0 g L-asparagine, 0.5 g cysteine·HCl, 56 mg K2HPO4, 56 mg KH2PO4, 82 mg anhydrous MgSO4, 8 mg FeSO4.H2O, 6 mg MnSO4.H2O and 10 g glucose. Alternatively, strains were grown in YEPG broth, which was identical to YE expect that K2HPO4 and KH2PO4 were increased to 145 mg/L each and glucose was increased to 60 g/L. The pH of the media was adjusted to 7.2 using 45% KOH prior to sterilization by autoclaving. Media were solidified by addition of 1.5% Bacteriological Agar, Acumedia Manufacturers, Inc., Lansing, Mich. All cultures were grown in anaerobic conditions using the AnaeroPack System, Mitsubishi Gas Chemical Co., Inc., Japan, and GasPak EZ Gas Generating Sachets, Becton, Dickinson and Co., Sparks, Md. Spore stocks were kept at room temperature on agar-solidified media and were activated by suspending spores in 0.5 mL to 1.0 mL of medium followed by heating for 10 min at 80 C before inoculation into growth medium.
Growth of bacterial cultures was measured spectrophotometrically using optical density at 600 nm and pH of cell-free culture supernatants was measured using a hand-held Shindengen ISFET pH Meter KS501, Shendengen Electric Manufacturing Co., Ltd., Bannockburn, Ill.
Total alcohols in cell-free culture supernatants were measured using a modification of a colorimetric method based on ceric ammonium nitrate (Reid and Truelove, 1952). The ceric ion reagent was prepared by adding 1.3 mL of concentrated nitric acid to 40 mL of distilled water, then 10.96 g of ceric ammonium nitrate was dissolved in the dilute nitric acid solution and the solution was brought to a final volume of 50 mL. For the assay, […] of butanol standard or culture supernatant was mixed with […] distilled water in a disposable plastic cuvette followed by addition of […] of the ceric ion reagent. The sample was mixed by inverting the cuvette six times then exactly two minutes later the optical density at 500 nm wavelength was measured. The concentration of total alcohols was determined by comparison with a standard curve prepared by using butanol diluted in distilled water.
Spores of C. acetobutylicum ATCC 824 were germinated and grown overnight at 30 C under anaerobic conditions in YEPG medium. After about 24 h of growth, […] of the culture was transferred (transfer 1) to each of four flasks that contained 10 mL of YEPG and either had no treatment or were treated with peptide SEQ ID NO: 143 (see Table 8 and FIG. 1) at 1 nM, 10 nM or 50 nM. Thereafter, […] of each culture was transferred, at the same time, every 24-48 h to 10 mL of fresh YEPG that contained the same peptide treatment or no treatment. Each culture was stopped after 96 hours of incubation and optical density, pH and ceric ion reactive chemicals were measured. Sequential batch culturing was continued through 5 transfers at which point the untreated culture and those treated with 1 nM and 10 nM of peptide SEQ ID NO: 143 had stopped growing (Table 9). […] In addition, treatment with 1 nM of peptide SEQ ID NO: 143 appeared to stop growth at the first transfer, but growth was restored in the second and third transfers.

Substance: SYPGWSW [peptide SEQ ID NO: 143]
- Extension of growth during sequential batch cultures (1 nM, 30 °C, untreated culture stopped earlier): growth through the third transfer
- Final pH (1 nM, transfer 1, 30 °C): 6.0
- Optical density at 600 nm (1 nM, transfer 1, 30 °C): 0.005
- Optical density of ceric ion reactive compounds measured at 500 nm (1 nM, transfer 1, 30 °C): 0.048
- Final pH (1 nM, transfer 2, 30 °C): 4.4
- Optical density at 600 nm (1 nM, transfer 2, 30 °C): 2.274
- Optical density of ceric ion reactive compounds measured at 500 nm (1 nM, transfer 2, 30 °C): 0.119
- Final pH (1 nM, transfer 3, 30 °C): 4.4
- Optical density at 600 nm (1 nM, transfer 3, 30 °C): 2.165
- Optical density of ceric ion reactive compounds measured at 500 nm (1 nM, transfer 3, 30 °C): 0.167
- Final pH (1 nM, transfer 4, 30 °C): 6.0
- Optical density at 600 nm (1 nM, transfer 4, 30 °C): 0.044
- Optical density of ceric ion reactive compounds measured at 500 nm (1 nM, transfer 4, 30 °C): 0.031
- Final pH (1 nM, transfer 5, 30 °C): 6.0
- Optical density at 600 nm (1 nM, transfer 5, 30 °C): 0.004
- Optical density of ceric ion reactive compounds measured at 500 nm (1 nM, transfer 5, 30 °C): 0.040
- Extension of growth during sequential batch cultures (10 nM, 30 °C): growth through the fourth transfer
- Final pH (10 nM, transfer 1, 30 °C): 4.4
- Optical density at 600 nm (10 nM, transfer 1, 30 °C): 2.001
- Optical density of ceric ion reactive compounds measured at 500 nm (10 nM, transfer 1, 30 °C): 0.175
- Final pH (10 nM, transfer 2, 30 °C): 4.4
- Optical density at 600 nm (10 nM, transfer 2, 30 °C): 2.245
- Optical density of ceric ion reactive compounds measured at 500 nm (10 nM, transfer 2, 30 °C): 0.184
- Final pH (10 nM, transfer 3, 30 °C): 4.5
- Optical density at 600 nm (10 nM, transfer 3, 30 °C): 2.379
- Optical density of ceric ion reactive compounds measured at 500 nm (10 nM, transfer 3, 30 °C): 0.187
- Final pH (10 nM, transfer 4, 30 °C): 4.5
- Optical density at 600 nm (10 nM, transfer 4, 30 °C): 2.266
- Optical density of ceric ion reactive compounds measured at 500 nm (10 nM, transfer 4, 30 °C): 0.192
- Final pH (10 nM, transfer 5, 30 °C): 5.9 and 6.0
- Optical density at 600 nm (10 nM, transfer 5, 30 °C): 0.028
- Optical density of ceric ion reactive compounds measured at 500 nm (10 nM, transfer 5, 30 °C): 0.043
- Extension of growth during sequential batch cultures (50 nM, 30 °C): growth through the fifth transfer
- Final pH (50 nM, transfer 1, 30 °C): 4.4
- Optical density at 600 nm (50 nM, transfer 1, 30 °C): 1.879
- Optical density of ceric ion reactive compounds measured at 500 nm (50 nM, transfer 1, 30 °C): 0.159
- Final pH (50 nM, transfer 2, 30 °C): 4.6
- Optical density at 600 nm (50 nM, transfer 2, 30 °C): 2.089
- Optical density of ceric ion reactive compounds measured at 500 nm (50 nM, transfer 2, 30 °C): 0.189
- Final pH (50 nM, transfer 3, 30 °C): 4.5
- Optical density at 600 nm (50 nM, transfer 3, 30 °C): 2.313
- Optical density of ceric ion reactive compounds measured at 500 nm (50 nM, transfer 3, 30 °C): 0.183
- Final pH (50 nM, transfer 4, 30 °C): 4.4
- Optical density at 600 nm (50 nM, transfer 4, 30 °C): 2.187
- Optical density of ceric ion reactive compounds measured at 500 nm (50 nM, transfer 4, 30 °C): 0.187
- Final pH (50 nM, transfer 5, 30 °C): 4.3
- Optical density at 600 nm (50 nM, transfer 5, 30 °C): 2.173
- Optical density of ceric ion reactive compounds measured at 500 nm (50 nM, transfer 5, 30 °C): 0.174
- Culture degeneration in terms of number of sequential transfers and production of total alcohols (30 °C): prevent culture degeneration
- Number of additional sequential transfers versus a culture without added peptide (30 °C): at least four more times
- Expected extension of time in continuous culture (extrapolated from sequential batch transfers, dilution rate of 0.05/hour): about five-fold
- Expected time in continuous culture (extrapolated from sequential batch transfers, dilution rate of 0.05/hour, from about 140 hours without peptide): about 700 hours
